Data reported in BindingDB's records for doi:10.1016/s0960-894x(01)00529-7 (The R. W. Johnson Pharmaceutical Research Institute, 2001).
pIC50: −log10 of the molar value.

Assay: Inhibition of thrombin-induced human gel-filtered platelet aggregation

**Q.** With `O=C(O)C[C@H](NC(=O)C1CCCn2c(/C=C/C3CCNCC3)nnc21)c1cccnc1` (stereo partly drawn) [(S)-3-{[3-((E)-2-Piperidin-4-yl-vinyl)-5,6,7,8-tetrahydro-[1,2,4]triazolo[4,3-a]pyridine-8-carbonyl]-amino}-3-pyridin-3-yl-propionic acid] as the molecule, how does the pIC50 read?
**A.** 10.21

**Q.** With `O=C(N[C@@H](CNC(=O)C1CCCn2c(C=CC3CCNCC3)nnc21)C(=O)O)OCc1ccccc1` (stereo partly specified) [2-Benzyloxycarbonylamino-3-{[3-(2-piperidin-4-yl-vinyl)-5,6,7,8-tetrahydro-[1,2,4]triazolo[4,3-a]pyridine-8-carbonyl]-amino}-propionic acid] as the molecule, how does the pIC50 read?
**A.** 10.39

**Q.** With `CC1(C(=O)NC[C@H](NC(=O)OCc2ccccc2)C(=O)O)CCCn2c(CCC3CCNCC3)nnc21` (stereo partly specified) [2-Benzyloxycarbonylamino-3-{[8-methyl-3-(2-piperidin-4-yl-ethyl)-5,6,7,8-tetrahydro-[1,2,4]triazolo[4,3-a]pyridine-8-carbonyl]-amino}-propionic acid] as the molecule, how does the pIC50 read?
**A.** 8.57

**Q.** With `O=C(O)C[C@H](NC(=O)c1cccn2c(CCC3CCNCC3)nnc12)c1cccnc1` [(S)-3-{[3-(2-Piperidin-4-yl-ethyl)-[1,2,4]triazolo[4,3-a]pyridine-8-carbonyl]-amino}-3-pyridin-3-yl-propionic acid] as the molecule, how does the pIC50 read?
**A.** 9.43

**Q.** With `O=C(O)C[C@H](NC(=O)C1CCCn2c(CCC3CCNCC3)nnc21)c1cccnc1` (stereo partly drawn) [(S)-3-{[3-(2-Piperidin-4-yl-ethyl)-5,6,7,8-tetrahydro-[1,2,4]triazolo[4,3-a]pyridine-8-carbonyl]-amino}-3-pyridin-3-yl-propionic acid] as the molecule, how does the pIC50 read?
**A.** 10.80

**Q.** With `O=C(O)C[C@H](NC(=O)[C@@H]1CCCN(C(=O)CCC2CCNCC2)C1)c1cccnc1` [(S)-3-{[(R)-1-(3-Piperidin-4-yl-propionyl)-piperidine-3-carbonyl]-amino}-3-pyridin-3-yl-propionic acid] as the molecule, how does the pIC50 read?
**A.** 10.22

**Q.** With `O=C(NC[C@H](NS(=O)(=O)Cc1ccccc1)C(=O)O)C1CCCn2c(/C=C/C3CCNCC3)nnc21` (stereo partly specified) [2-Phenylmethanesulfonylamino-3-{[3-(2-piperidin-4-yl-vinyl)-5,6,7,8-tetrahydro-[1,2,4]triazolo[4,3-a]pyridine-8-carbonyl]-amino}-propionic acid] as the molecule, how does the pIC50 read?
**A.** 10.37

**Q.** With `O=C(N[C@@H](CNC(=O)C1CCCn2c(CCC3CCNCC3)nnc21)C(=O)O)OCc1ccccc1` (stereo partly specified) [2-Benzyloxycarbonylamino-3-{[3-(2-piperidin-4-yl-ethyl)-5,6,7,8-tetrahydro-[1,2,4]triazolo[4,3-a]pyridine-8-carbonyl]-amino}-propionic acid] as the molecule, how does the pIC50 read?
**A.** 10.17

**Q.** With `O=C(Cc1cccnc1)N[C@@H](CNC(=O)C1CCCn2c(/C=C/C3CCNCC3)nnc21)C(=O)O` (stereo partly specified) [3-{[3-(2-Piperidin-4-yl-vinyl)-5,6,7,8-tetrahydro-[1,2,4]triazolo[4,3-a]pyridine-8-carbonyl]-amino}-2-(2-pyridin-3-yl-acetylamino)-propionic acid] as the molecule, how does the pIC50 read?
**A.** 9.92

**Q.** With `O=C(O)C[C@H](NC(=O)C1CCCn2c(/C=C/C3CCNCC3)nnc21)c1cnc2ccccc2c1` (stereo partly drawn) [(S)-3-{[3-((E)-2-Piperidin-4-yl-vinyl)-5,6,7,8-tetrahydro-[1,2,4]triazolo[4,3-a]pyridine-8-carbonyl]-amino}-3-quinolin-3-yl-propionic acid] as the molecule, how does the pIC50 read?
**A.** 10.24

**Q.** With `O=C(N[C@@H](CNC(=O)[C@@H]1CCCN(C(=O)CCC2CCNCC2)C1)C(=O)O)OCc1ccccc1` [RWJ-53419] as the molecule, how does the pIC50 read?
**A.** 10.57
